Data as given in ChEMBL document CHEMBL5532661, “Discovery of a Novel Glucagon-like Peptide-1 (GLP-1) Analogue from Bullfrog and Investigation of Its Potential for Designing GLP-1-Based Multiagonists” (J Med Chem, 2024).
Activity calls are given as the source filed them. No cut-off for these calls is given here. Numbered stars: 1 amine (or outer) side, 2 acyl side, 3 side chain; on linkers, the order of the positions; unused ones are H or OH. Square brackets hold non-standard residues; d marks the D form. Side chains are listed from the residue outwards. Peptide text beside a SMILES is read from it. * marks the point of attachment. C18 diacid = O=C(O)CCCCCCCCCCCCCCCCC(=O)*; γGlu = O=C(O)[C@H](CCC(=O)[*:2])N[*:1]; AEEA = NCCOCCOCC(=O)O; Aib = CC(C)(N)C(=O)O

How the values were obtained:
[1] = target: T1, Glucagon-like peptide 1 receptor (Homo sapiens, UniProt P43220); test: Agonist activity at human GLP-1 receptor expressed in HEK293 cells assessed as cAMP level by measuring relative percent (GLP-1 EC50/compound EC50) measured after 60 mins by HTRF based assay relative to GLP-1; format: functional, cell-based; settings: filed as agonist
T1 sequence (P43220 whole entry): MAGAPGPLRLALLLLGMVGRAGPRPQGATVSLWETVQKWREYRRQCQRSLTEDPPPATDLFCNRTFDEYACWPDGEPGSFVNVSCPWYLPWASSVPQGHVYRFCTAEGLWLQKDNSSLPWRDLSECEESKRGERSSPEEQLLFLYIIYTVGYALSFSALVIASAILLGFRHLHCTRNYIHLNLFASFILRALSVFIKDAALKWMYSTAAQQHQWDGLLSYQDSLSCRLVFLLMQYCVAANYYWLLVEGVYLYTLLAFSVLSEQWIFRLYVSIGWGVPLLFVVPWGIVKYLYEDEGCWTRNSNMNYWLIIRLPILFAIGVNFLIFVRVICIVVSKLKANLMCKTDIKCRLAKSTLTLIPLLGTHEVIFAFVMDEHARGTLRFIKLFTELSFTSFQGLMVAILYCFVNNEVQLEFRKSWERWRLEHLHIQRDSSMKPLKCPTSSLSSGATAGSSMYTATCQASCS

[2] = system: Mus musculus; test: Reduction in serum triglyceride in DIO mouse at 30 nmol/kg, sc treated every 2 and half day once measured after 21 days; format: functional, organism-based; settings: time 21.0 day
[3] = system: Mus musculus; test: Anorexigenic effect in ICR mouse assessed as decrease in food intake at 30 nmol/kg, sc measured upto 72 hrs by acute food intake study; format: functional, organism-based
[4] = system: Mus musculus; test: Reduction in hepatic lipid content in DIO mouse at 30 nmol/kg, sc treated every 2 and half day once measured after 21 days by H and E staining based assay; format: functional, organism-based; settings: time 21.0 day
[5] = system: Mus musculus; test: Hypoglycemic effect in ICR mouse treated with 3 g/kg glucose assessed as reduction in blood glucose level at 10 nmol/kg, sc measured upto 120 mins by acute glucose lowering test; format: functional, organism-based
[6] = target: T2, Gastric inhibitory polypeptide receptor (Homo sapiens) (UniProt P48546); test: Agonist activity at human GIPR receptor expressed in HEK293 cells assessed as cAMP level by measuring relative percent (GIP EC50/compound EC50) measured after 60 mins by HTRF based assay relative to GIP; format: functional, cell-based
T2 sequence (whole entry): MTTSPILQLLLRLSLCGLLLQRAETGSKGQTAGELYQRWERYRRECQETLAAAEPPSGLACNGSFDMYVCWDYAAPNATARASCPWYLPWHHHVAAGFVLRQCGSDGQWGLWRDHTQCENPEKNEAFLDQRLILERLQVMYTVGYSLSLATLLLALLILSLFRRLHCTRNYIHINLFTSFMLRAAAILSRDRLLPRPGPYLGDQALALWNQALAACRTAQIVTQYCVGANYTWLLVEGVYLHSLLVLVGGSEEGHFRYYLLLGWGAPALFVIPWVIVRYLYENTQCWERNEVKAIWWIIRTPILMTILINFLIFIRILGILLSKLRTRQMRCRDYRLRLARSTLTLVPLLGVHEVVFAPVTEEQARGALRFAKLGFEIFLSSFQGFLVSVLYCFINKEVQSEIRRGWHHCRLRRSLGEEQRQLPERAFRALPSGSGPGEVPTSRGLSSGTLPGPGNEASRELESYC

[7] = system: Mus musculus; test: Antihyperglycemic effect in DIO mouse assessed as antihyperglycemic duration by measuring blood glucose at 30 nmol/kg, sc measured after 48 hrs by hypoglycemic duration assay; format: functional, organism-based
[8] = system: Mus musculus; test: Hypoglycemic effect in ICR mouse treated with 3 g/kg glucose assessed as reduction in blood glucose level at 100 nmol/kg, sc measured upto 120 mins by acute glucose lowering test; format: functional, organism-based
[9] = system: Mus musculus; test: Reduction in feed intake in DIO mouse at 30 nmol/kg, sc treated twice a day measured after 21 days; format: functional, organism-based; settings: time 21.0 day
[10] = system: Mus musculus; test: Reduction in total fat mass in DIO mouse at 30 nmol/kg, sc treated every 2 and half day once measured after 21 days; format: functional, organism-based; settings: time 21.0 day
[11] = system: Mus musculus; test: Antihyperglycemic effect in DIO mouse assessed as antihyperglycemic duration by measuring blood glucose at 30 nmol/kg, sc administered twice daily measured by hypoglycemic duration assay; format: functional, organism-based
[12] = target: Glucagon receptor (Mus musculus) (UniProt Q61606); test: Potency index, ratio of glucagon EC50 to test compound EC50 for agonist activity at mouse GCGR expressed in HEK293 cells assessed as cAMP level measured after 60 mins by HTRF based assay; format: functional, cell-based; settings: filed as agonist
Glucagon receptor (Mus musculus), sequence (Q61606 whole entry): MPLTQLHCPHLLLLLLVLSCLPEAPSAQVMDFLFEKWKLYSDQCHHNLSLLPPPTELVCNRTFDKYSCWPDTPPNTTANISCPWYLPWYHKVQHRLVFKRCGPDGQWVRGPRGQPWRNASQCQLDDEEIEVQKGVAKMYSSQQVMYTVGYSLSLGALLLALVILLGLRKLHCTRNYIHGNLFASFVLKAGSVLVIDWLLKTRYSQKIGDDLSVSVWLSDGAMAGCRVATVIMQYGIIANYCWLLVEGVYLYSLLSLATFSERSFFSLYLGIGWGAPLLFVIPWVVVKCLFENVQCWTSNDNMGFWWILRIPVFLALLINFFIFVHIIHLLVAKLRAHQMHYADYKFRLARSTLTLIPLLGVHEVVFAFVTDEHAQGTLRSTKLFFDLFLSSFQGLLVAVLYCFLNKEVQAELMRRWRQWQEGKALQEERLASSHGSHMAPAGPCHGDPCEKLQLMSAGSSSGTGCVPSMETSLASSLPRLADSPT

[13] = system: Mus musculus; test: Reduction in serum AST in DIO mouse at 30 nmol/kg, sc treated every 2 and half day once measured after 21 days; format: functional, organism-based; settings: time 21.0 day
[14] = system: Mus musculus; test: Reduction in blood glucose level in non-fasting DIO mouse at 30 nmol/kg, sc treated every 2 and half day once measured after 21 days by glucose tolerance test; format: functional, organism-based; settings: time 21.0 day
[15] = target: T1, Glucagon-like peptide 1 receptor; test: Agonist activity at human GLP-1 receptor expressed in HEK293 cells assessed as cAMP level measured after 60 mins by HTRF based assay; format: functional, cell-based
[16] = target: T3, Glucagon receptor (Homo sapiens, UniProt P47871); test: Agonist activity at human GCGR expressed in HEK293 cells assessed as cAMP level measured after 60 mins by HTRF based assay; format: functional, cell-based
T3 sequence (P47871 whole entry): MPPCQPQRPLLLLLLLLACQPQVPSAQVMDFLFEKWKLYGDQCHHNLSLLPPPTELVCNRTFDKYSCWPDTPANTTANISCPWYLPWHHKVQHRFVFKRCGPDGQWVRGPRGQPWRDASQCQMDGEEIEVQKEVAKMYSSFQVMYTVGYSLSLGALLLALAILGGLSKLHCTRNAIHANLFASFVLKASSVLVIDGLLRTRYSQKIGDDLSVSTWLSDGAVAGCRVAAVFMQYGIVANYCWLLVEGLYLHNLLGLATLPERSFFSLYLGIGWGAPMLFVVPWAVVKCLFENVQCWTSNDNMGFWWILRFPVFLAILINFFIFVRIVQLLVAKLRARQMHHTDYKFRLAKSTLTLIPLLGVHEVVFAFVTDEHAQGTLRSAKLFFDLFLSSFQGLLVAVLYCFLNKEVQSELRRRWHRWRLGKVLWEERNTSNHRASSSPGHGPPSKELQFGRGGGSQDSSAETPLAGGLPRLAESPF

[17] = system: Mus musculus; test: Antihyperglycemic effect in DIO mouse assessed as prolonged antihyperglycemic duration by measuring blood glucose at 100 nmol/kg, sc; format: functional, organism-based
[18] = target: T4, Glucagon-like peptide 1 receptor (Mus musculus) (UniProt O35659); test: Agonist activity at mouse GLP-1 receptor expressed in HEK293 cells assessed as cAMP level measured after 60 mins by HTRF based assay; format: functional, cell-based; settings: filed as agonist
T4 sequence (whole entry): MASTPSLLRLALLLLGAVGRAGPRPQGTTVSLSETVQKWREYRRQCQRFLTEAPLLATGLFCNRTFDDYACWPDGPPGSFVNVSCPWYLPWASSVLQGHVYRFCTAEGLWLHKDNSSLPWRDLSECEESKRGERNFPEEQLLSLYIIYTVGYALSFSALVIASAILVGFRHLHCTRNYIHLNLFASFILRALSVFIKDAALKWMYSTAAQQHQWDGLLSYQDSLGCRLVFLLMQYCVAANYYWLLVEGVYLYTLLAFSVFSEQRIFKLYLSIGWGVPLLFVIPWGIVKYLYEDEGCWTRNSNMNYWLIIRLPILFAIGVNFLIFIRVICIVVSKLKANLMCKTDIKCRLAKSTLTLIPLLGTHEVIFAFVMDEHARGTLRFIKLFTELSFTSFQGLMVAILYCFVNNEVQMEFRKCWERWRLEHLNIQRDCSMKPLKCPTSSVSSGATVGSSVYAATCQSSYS

[19] = target: T5, Gastric inhibitory polypeptide receptor (Homo sapiens, UniProt P48546); test: Agonist activity at human GIPR receptor expressed in HEK293 cells assessed as cAMP level measured after 60 mins by HTRF based assay; format: functional, cell-based
T5 sequence (P48546 whole entry): T2 sequence (whole entry)

[20] = system: Mus musculus; test: Anorexigenic effect in ICR mouse assessed as decrease in food intake at 10 nmol/kg, sc measured upto 72 hrs by acute food intake study; format: functional, organism-based
[21] = system: Mus musculus; test: Hypoglycemic effect in ICR mouse treated with 3 g/kg glucose assessed as reduction in blood glucose level at 30 nmol/kg, sc measured upto 120 mins pretreated with GLP-1R and GIPR antagonist by OGTT; format: functional, organism-based
[22] = system: Mus musculus; test: Reduction in serum ALT in DIO mouse at 30 nmol/kg, sc treated every 2 and half day once measured after 21 days; format: functional, organism-based; settings: time 21.0 day
[23] = system: Mus musculus; test: Anorexigenic effect in sc dosed ICR mouse assessed as decrease in food intake measured upto 72 hrs by acute food intake study; format: functional, organism-based; settings: dose 10-100 nmol/kg
[24] = system: Mus musculus; test: Reduction in body weight in DIO mouse at 30 nmol/kg, sc treated every 2 and half day once measured after 21 days; format: functional; set-up: scale not given: the % may be the effect or the level left; settings: time 21 day
[25] = system: Mus musculus; test: Reduction in total cholesterol in DIO mouse at 30 nmol/kg, sc treated every 2 and half day once measured after 21 days; format: functional, organism-based; settings: time 21.0 day
[26] = target: T3, Glucagon receptor; test: Agonist activity at human GCGR expressed in HEK293 cells assessed as cAMP level by measuring relative percent (glucagon EC50/compound EC50) measured after 60 mins by HTRF based assay relative to glucagon; format: functional, cell-based; settings: filed as agonist
[27] = target: T4, Glucagon-like peptide 1 receptor (Mus musculus); test: Potency index, ratio of GLP-1 EC50 to test compound EC50 for agonist activity at mouse GLP-1 receptor expressed in HEK293 cells assessed as cAMP level measured after 60 mins by HTRF based assay; format: functional, cell-based; settings: filed as agonist
[28] = target: Glucagon receptor (Mus musculus) (UniProt Q61606); test: Agonist activity at mouse GCGR receptor expressed in HEK293 cells assessed as cAMP level measured after 60 mins by HTRF based assay; format: functional, cell-based; settings: filed as agonist

Which results are given for `CC[C@H](C)[C@H](NC(=O)[C@H](CCCCNC(=O)COCCOCCNC(=O)COCCOCCNC(=O)CC[C@H](NC(=O)CCCCCCCCCCCCCCCCC(=O)O)C(=O)O)NC(=O)[C@H](CCC(=O)O)NC(=O)[C@H](CC(C)C)NC(=O)[C@H](C)NC(=O)[C@H](CCCNC(=N)N)NC(=O)[C@H](CO)NC(=O)[C@H](CCSC)NC(=O)[C@H](CC(=O)O)NC(=O)[C@H](CO)NC(=O)[C@@H](NC(=O)[C@H](Cc1ccccc1)NC(=O)[C@@H](NC(=O)CNC(=O)[C@H](CCC(N)=O)NC(=O)C(C)(C)NC(=O)[C@@H](N)Cc1c[nH]cn1)[C@@H](C)O)[C@@H](C)O)C(=O)N[C@@H](C)C(=O)N[C@@H](C)C(=O)N[C@@H](CCCNC(=N)N)C(=O)N[C@@H](CC(C)C)C(=O)N[C@@H](Cc1ccccc1)C(=O)N[C@H](C(=O)N[C@@H](CC(=O)O)C(=O)N[C@@H](Cc1c[nH]c2ccccc12)C(=O)N[C@@H](CC(C)C)C(=O)N[C@H](C(=O)N[C@@H](CCC(=O)O)C(=O)NCC(=O)NCC(=O)N1CCC[C@H]1C(=O)N[C@@H](CO)C(=O)N[C@@H](CO)C(=O)NCC(=O)N[C@@H](C)C(=O)N1CCC[C@H]1C(=O)N1CCC[C@H]1C(=O)N1CCC[C@H]1C(=O)N[C@@H](CO)C(N)=O)[C@@H](C)CC)C(C)C` (H-H[Aib]QGTFTSDMSRALEK([AEEA-AEEA-γGlu-C18 diacid])IAARLFVDWLIEGGPSSGAPPPS-NH2)?
Activity [1]: 442%; Activity [2]: Active; Activity [3]: Active; Activity [4]: Active; Activity [5]: Active; Activity [6]: 4%; Activity [7]: Active; Activity [8]: Active; Activity [9]: Active; Activity [10]: Active; Activity [11]: Active; Ratio EC50 [12]: 1; Activity [13]: Active; Activity [14]: Active; EC50 [15]: 0.012 nM; EC50 [16]: 0.13 nM; Activity [17]: Active; Activity [18]: Active; EC50 [19]: 0.6 nM; Activity [20]: Active; Activity [21]: inactive; Activity [22]: Active; Activity [23]: Dose-Dependent Effect; Activity [24]: 40.7%; Activity [25]: Active; Activity [26]: 71%; Ratio EC50 [27]: 1; Activity [28]: Active
